{"source": "paper PMC4740973", "about": "(Bioconjugate chemistry, 2015)", "key": {"[1]": {"conditions": "cited from earlier work"}, "MMP-9": {"target": "MMP-9 (Mus musculus, UniProt P41245)", "sequence (P41245 108-730)": "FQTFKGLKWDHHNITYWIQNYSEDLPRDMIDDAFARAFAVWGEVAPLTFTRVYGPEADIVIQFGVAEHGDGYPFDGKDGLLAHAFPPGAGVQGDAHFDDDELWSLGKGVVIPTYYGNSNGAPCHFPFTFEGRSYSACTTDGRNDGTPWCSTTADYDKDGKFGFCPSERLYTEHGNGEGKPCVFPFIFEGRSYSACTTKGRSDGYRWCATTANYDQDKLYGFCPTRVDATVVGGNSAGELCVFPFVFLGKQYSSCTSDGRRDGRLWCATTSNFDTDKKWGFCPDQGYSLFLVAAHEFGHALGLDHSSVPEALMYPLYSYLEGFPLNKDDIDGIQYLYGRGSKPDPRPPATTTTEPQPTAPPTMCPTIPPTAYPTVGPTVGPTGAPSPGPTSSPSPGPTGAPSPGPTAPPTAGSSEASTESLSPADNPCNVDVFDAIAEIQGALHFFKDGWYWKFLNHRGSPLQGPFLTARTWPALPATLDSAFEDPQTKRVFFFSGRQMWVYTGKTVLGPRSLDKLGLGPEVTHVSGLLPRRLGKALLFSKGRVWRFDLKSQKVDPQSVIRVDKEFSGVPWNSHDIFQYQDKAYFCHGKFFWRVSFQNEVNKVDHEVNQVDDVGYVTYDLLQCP", "experiment": "Peptide cleavage by recombinant MMP-9", "assay_type": "biochemical", "conditions": "prinomastat added to prodrug with MMP-9, similar conditions (Figure S1)"}}, "note": "Where two headings read alike, the source gives them in different places.", "data": [{"smiles": "CC[C@H](C)[C@H](NC(=O)CN)C(=O)NCC(=O)N[C@@H](C)C(=O)N[C@H](C(=O)N[C@@H](CC(C)C)C(=O)N[C@@H](CCCCN)C(=O)N[C@H](C(=O)N[C@@H](CC(C)C)C(=O)N[C@H](C(=O)N[C@H](C(=O)NCC(=O)N[C@@H](CC(C)C)C(=O)N1CCC[C@H]1C(=O)N[C@@H](C)C(=O)N[C@@H](CC(C)C)C(=O)N[C@H](C(=O)N[C@@H](CO)C(=O)N[C@@H](Cc1c[nH]c2ccccc12)C(=O)N[C@H](C(=O)N[C@@H](CCCCN)C(=O)N[C@@H](CCCNC(=N)N)C(=O)N[C@@H](CCCCN)C(=O)N[C@@H](CCCNC(=N)N)C(=O)N[C@@H](CCC(N)=O)C(=O)N[C@@H](CCC(N)=O)C(N)=O)[C@@H](C)CC)[C@@H](C)CC)[C@@H](C)O)[C@@H](C)O)C(C)C)C(C)C", "note": "[melittin, Melittin]", "values": [{"measurement": "plasma half-life", "setting": "[1]; free melittin", "value": 24, "unit": "min"}, {"measurement": "plasma half-life", "setting": "[1]; melittin incorporated onto perfluorocarbon nanoparticles", "value": "over 300 minutes"}]}, {"smiles": "CC1(C)SCCN(S(=O)(=O)c2ccc(Oc3ccncc3)cc2)[C@H]1C(=O)NO", "note": "[prinomastat]", "values": [{"measurement": "effect on prodrug cleavage by MMP-9", "setting": "MMP-9", "value": "prevented cleavage of the prodrug"}]}]}
